Experimental data from ChEMBL document CHEMBL1130168, “Synthesis and evaluation of novel rhodacyanine dyes that exhibit antitumor activity” (J Med Chem, 1997).

Experiments:
CV-1 = assay: Inhibitory concentration against growth of monkey normal kidney epithelial cells as a measure of compound toxicity; format: functional, cell-based, Cercopithecidae; conditions: Chlorocebus aethiops
CX-1 = assay: Inhibitory concentration against growth of human colon carcinoma cells; format: functional, cell-based
[1] = Selectivity ratio is IC50 of Human colon carcinoma cells to that of Monkey normal kidney epithelial cells; format: functional, Epithelial cell
Bladder carcinoma cell = assay: Inhibitory concentration of compound against growth of human bladder carcinoma cells; format: functional, cell-based
LOX IMVI [2] = assay: Inhibitory concentration of compound against growth of human melanoma cells; format: functional, cell-based
MCF7 = assay: Inhibitory concentration of compound against growth of human breast carcinoma cells; format: functional, cell-based
Mus musculus [3] = assay: 5 mg/kg of compound was administered IP on days 1,5,7 to CX-1 tumor bearing nude mice and the inhibition ratio was reported; format: functional
Mus musculus [4] = assay: 5 mg/kg of compound was administered IP on days 1,5,8,12 to LOX tumor bearing nude mice and the ratio of median survival time of treated to control was reported; format: functional
MIA PaCa-2 = assay: Inhibitory concentration of compound against growth of human pancreatic carcinoma cells; format: functional, cell-based
Mus musculus [5] = assay: 5 mg/kg of compound was administered IP on days 1,3,7,10,16 to OVCARIII tumor bearing nude mice and the ratio of median survival time of treated to control was reported
Mus musculus [6] = assay: 1.5 mg/kg of compound was administered IP on days 1,3,4,7,9 to LOX tumor bearing nude mice and the ratio of median survival time of treated to control was reported; format: functional
Mus musculus [7] = assay: 5 mg/kg of compound was administered IP on days 1,3,7,10,16 to […] tumor bearing nude mice and the ratio of median survival time of treated to control was reported; format: functional; conditions: at 5 mg/kg
Mus musculus [8] = assay: 5 mg/kg of compound was administered IP on days 1,5,8,12,15 to LOX tumor bearing nude mice and the ratio of median survival time of treated to control was reported; format: functional; conditions: at 5 mg/kg
LOX IMVI [9] = assay: Inhibitory concentration of compound against growth of human melanoma cell cells; format: functional, cell-based
Mus musculus [10] = assay: 2 mg/kg of compound was administered IP on days 1,2,4,5,7,8,10 to LOX tumor bearing nude mice and the ratio of median survival time of treated to control was reported; format: functional; conditions: at 2 mg/kg
Mus musculus [11] = assay: 4 mg/kg of compound was administered IP on days 1,2,4,5,7,8,10 to LOX tumor bearing nude mice and the ratio of median survival time of treated to control was reported; format: functional; conditions: at 4 mg/kg
[12] = Homo sapiens, Bladder carcinoma cell

| Structure (SMILES) | IC50 (CV-1) | IC50 (CX-1) | Ratio [1] | further results |
| --- | --- | --- | --- | --- |
| CCN1/C(=C/C=C(Cl)/C=C/c2sc3ccc4ccccc4c3[n+]2CC)Sc2ccc3ccccc3c21.Cc1ccc(S(=O)(=O)[O-])cc1 | 100 nM | 60 nM | 2 |  |
| CC[n+]1c(/C=c2\s/c(=C3/Sc4ccccc4N3C)c(=O)n2-c2ccccc2)sc2ccccc21.Cc1ccc(S(=O)(=O)[O-])cc1 | 2200 nM | 10 nM | 220 | IC50 (Bladder carcinoma cell; [12]): 40 nM; IC50 (LOX IMVI [2]): 40 nM; IC50 (MCF7; Homo sapiens, MCF7): 60 nM; TI (Mus musculus [3]): 42%; T/C (Mus musculus [4]): 183%; IC50 (MIA PaCa-2; Homo sapiens, MIA PaCa-2): 40 nM; T/C (Mus musculus [5]): >300% |
| CCN1/C(=C/C=c2\s/c(=C\c3sc4ccccc4[n+]3CC)n(-c3ccccc3)c2=O)Sc2ccccc21.[I-] | 3000 nM | 60 nM | 50 | IC50 (Bladder carcinoma cell; [12]): 400 nM; IC50 (LOX IMVI [2]): 40 nM; IC50 (MCF7; Homo sapiens, MCF7): 40 nM; T/C (Mus musculus [6]): 256%; IC50 (MIA PaCa-2; Homo sapiens, MIA PaCa-2): 70 nM |
| CCn1c(=O)/c(=C2\Sc3ccccc3N2C)s/c1=C\c1sc2ccccc2[n+]1CC.[I-] | 17300 nM | 50 nM | 346 | IC50 (Bladder carcinoma cell; bladder carcinoma cell): 70 nM; IC50 (LOX IMVI [2]): 20 nM; IC50 (MCF7; mcf7): 90 nM; T/C (Mus musculus [7]): 180%; T/C (Mus musculus [8]): 168%; IC50 (MIA PaCa-2; mia paca-2): 50 nM |
| CCn1c(=O)c(=C2CCCCC2)s/c1=C\c1sc2ccccc2[n+]1CC.Cc1ccc(S(=O)(=O)[O-])cc1 | 16200 nM | 1800 nM | 9 |  |
| CCn1c(=O)/c(=C2\Sc3ccccc3N2C)n(CC)/c1=C\c1sc2ccccc2[n+]1CC.[I-] | 25400 nM | 1300 nM | 20 |  |
| CC(=O)[O-].CCn1c(=O)/c(=C2\Sc3ccccc3N2C)s/c1=C\c1sc2ccccc2[n+]1CC |  |  |  | IC50 (Bladder carcinoma cell; [12]): 60 nM; IC50 (LOX IMVI [9]): 10 nM; IC50 (MCF7; mcf7): 400 nM; T/C (Mus musculus [10]): 156%; T/C (Mus musculus [11]): 163%; IC50 (MIA PaCa-2; Homo sapiens, MIA PaCa-2): 60 nM |
| CCN1/C(=C/C=c2\s/c(=C\c3sc4ccc5ccccc5c4[n+]3CC)n(CC)c2=O)Sc2ccc3ccccc3c21.Cc1ccc(S(=O)(=O)[O-])cc1 | 6500 nM | 30 nM | 217 |  |
| CCN1/C(=C/C=c2/c(=O)n(CC)/c(=C/c3sc4c5ccccc5ccc4[n+]3CC)n2CC)Sc2ccc3ccccc3c21.[I-] | 800 nM | 100 nM | 8 |  |
| CC[n+]1c(/C=c2\s/c(=C\Nc3ccccc3)c(=O)n2-c2ccccc2)sc2ccccc21.[Br-] | 1500 nM | 1500 nM | 1 |  |
| CCN1/C(=C/C=c2\s/c(=C\c3sc4ccccc4[n+]3CC)sc2=O)Oc2ccccc21.[I-] | 3400 nM | > 1700 nM | <2 |  |
| CCN1C(=O)CS/C1=C\c1sc2ccccc2[n+]1CC.[Br-] | 38900 nM | 1300 nM | 30 |  |
| CC[n+]1c(/C=C2\SCC(=O)N2c2ccccc2)sc2ccccc21.[Br-] | 46100 nM | 2300 nM | 20 |  |
| CCN1/C(=C/C=c2/c(=O)s/c(=C/c3sc4ccccc4[n+]3CC)n2C)Oc2ccccc21.[I-] | 3400 nM | 70 nM | 49 |  |
| CCN1/C(=C/C=c2\s/c(=C\c3sc4ccccc4[n+]3CC)n(C)c2=O)Oc2ccccc21.[I-] | 1700 nM | 30 nM | 57 |  |
| CC[n+]1c(/C=c2\s/c(=C\C=C\Nc3ccccc3)c(=O)n2-c2ccccc2)sc2ccccc21.[I-] | 9800 nM | 800 nM | 12 |  |
| CCN1/C(=C/C=C/c2sc3ccccc3[n+]2CC)Sc2ccccc21.[I-] | 1200 nM | 60 nM | 20 |  |
